Measured values: patent US20240124504A1, “AROMATIC HETEROCYCLIC COMPOUND, AND PHARMACEUTICAL COMPOSITION AND APPLICATION THEREOF” (GT APEIRON THERAPEUTICS LIMITED, priority 2020, published 2024)
pIC50: −log10 of the molar value.

Key:
CDK9/cyclinT1 complex = CDK9/cyclinT1 complex (Homo sapiens, UniProt P50750); experiment: In-vitro enzymatic inhibitory activity testing, CDK9 inhibition assay (Caliper EZ Reader II); assay type: biochemical; details: CDK9/cyclinT1 8 nM, 180 min at 27° C.
Protocol: (§1) CDK12/CyclinK was diluted in an assay buffer (80 mM MES PH 6.5, 0.01% Tween 20, 50 ug/mL BSA, 10 mM MgCl2) to afford a corresponding enzyme solution with the 2.4 concentration. A compound was dissolved in dimethyl sulfoxide (DMSO) at a concentration of 10 mM. […] 2 ul of a test compound solution was mixed with 5 ul of the enzyme solution; after incubation for 10 min, 5 ul of the polypeptide substrate and ATP mixed solution was added; incubation was carried out for 180 min at 27° C.; and then, the reaction was terminated by adding 4 uL of EDTA with a concentration of 120 mM to each sample. […] A CDK9/cyclinT1 complex (8 nM) and a “5-FAM-CDK9tide” peptide substrate (2 IM, synthetic fluorophore-labeled peptide with the following sequence: 5-FAM-GSRTPMY-NH2, wherein 5-FAM was as defined above and NH2 represented C-terminal amide) were used for a CDK9 inhibition assay. […] A CDK2/cyclinE1 complex (0.5 nM) and “5-FAM-CDK7tide” (2 μM) as defined above were used for CDK2 inhibition assay.
(§2) A reaction mixture was analyzed on Caliper EZ Reader II by electrophoretic separation of a fluorogenic substrate and a phosphorylated product. Data were calculated by using GraphPad Prism version 6.0, and IC50 values were adjusted and obtained by using a nonlinear regression model of a dose response curve.

CDK2/cyclinE1 complex = CDK2/cyclinE1 complex (Homo sapiens, UniProt P24941); experiment: In-vitro enzymatic inhibitory activity testing, CDK2 inhibition assay (Caliper EZ Reader II); assay type: biochemical; details: CDK2/cyclinE1 0.5 nM, 180 min at 27° C.
Protocol: CDK12/CyclinK was diluted in an assay buffer (80 mM MES PH 6.5, 0.01% Tween 20, 50 ug/mL BSA, 10 mM MgCl2) to afford a corresponding enzyme solution with the 2.4 concentration. […] A CDK9/cyclinT1 complex (8 nM) and a “5-FAM-CDK9tide” peptide substrate (2 IM, synthetic fluorophore-labeled peptide with the following sequence: 5-FAM-GSRTPMY-NH2, wherein 5-FAM was as defined above and NH2 represented C-terminal amide) were used for a CDK9 inhibition assay. […] A CDK2/cyclinE1 complex (0.5 nM) and “5-FAM-CDK7tide” (2 μM) as defined above were used for CDK2 inhibition assay.
as §2

[1] = target: T1, CDK12 (aa686-1082)/cyclinK complex (Homo sapiens, UniProt Q9NYV4); experiment: In-vitro enzymatic inhibitory activity testing, CDK12 inhibition assay (Caliper EZ Reader II); assay type: biochemical; details: CDK12/cyclinK 50 nM, 180 min at 27° C.; read-out: CDK12 IC50
T1 construct: A CDK12 (aa686-1082)/cyclinK complex (50 nM)
T1 sequence (Q9NYV4 686-1082, species assumed): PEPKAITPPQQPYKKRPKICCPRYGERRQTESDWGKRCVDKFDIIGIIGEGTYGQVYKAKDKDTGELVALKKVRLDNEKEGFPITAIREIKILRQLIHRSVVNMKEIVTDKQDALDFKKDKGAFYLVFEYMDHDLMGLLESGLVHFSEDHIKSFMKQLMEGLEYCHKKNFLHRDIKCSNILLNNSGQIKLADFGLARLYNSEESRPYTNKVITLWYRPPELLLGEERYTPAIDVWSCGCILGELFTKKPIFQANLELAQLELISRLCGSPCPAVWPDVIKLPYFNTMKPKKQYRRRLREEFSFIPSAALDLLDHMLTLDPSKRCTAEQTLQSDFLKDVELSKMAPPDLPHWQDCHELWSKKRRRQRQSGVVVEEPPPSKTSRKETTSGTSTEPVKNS
T1 sequence (O75909 whole entry partner, species assumed, the tested form may be a part): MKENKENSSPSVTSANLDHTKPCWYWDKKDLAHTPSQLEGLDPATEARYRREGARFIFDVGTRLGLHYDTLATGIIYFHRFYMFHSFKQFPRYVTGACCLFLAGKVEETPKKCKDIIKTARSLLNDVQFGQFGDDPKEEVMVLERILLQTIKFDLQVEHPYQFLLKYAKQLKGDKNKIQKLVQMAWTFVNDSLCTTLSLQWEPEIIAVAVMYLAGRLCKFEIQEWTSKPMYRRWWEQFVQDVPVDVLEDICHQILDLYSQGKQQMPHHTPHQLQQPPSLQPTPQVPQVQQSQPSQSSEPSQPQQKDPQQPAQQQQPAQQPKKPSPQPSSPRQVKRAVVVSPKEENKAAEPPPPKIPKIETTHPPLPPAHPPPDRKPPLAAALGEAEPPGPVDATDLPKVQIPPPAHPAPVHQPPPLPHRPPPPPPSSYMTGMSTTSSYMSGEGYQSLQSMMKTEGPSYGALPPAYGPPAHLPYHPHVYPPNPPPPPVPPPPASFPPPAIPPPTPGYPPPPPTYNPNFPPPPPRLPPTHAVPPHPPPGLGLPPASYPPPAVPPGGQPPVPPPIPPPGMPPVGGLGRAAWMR
Protocol: An assay was carried out in a U-bottom 384-well plate (coming, 4512#), and the reaction temperature was 27° C. CDK7/CyclinH was diluted in an assay buffer (20 mM MES PH 6.75, 0.01% Tween 20, 50 ug/mL BSA, 6 mM MgCl2) to afford a corresponding enzyme solution with the 2.4× concentration. CDK2/CyclinE1 was diluted in an assay buffer (20 mM MES PH 6.75, 0.01% Tween 20, 50 ug/mL BSA, 6 mM MgCl2) to afford a corresponding enzyme solution with the 2.4× concentration. CDK9/CyclinT1 was diluted in an assay buffer (20 mM MES PH 6.75, 0.01% Tween 20, 50 ug/mL BSA, 10 mM MgCl2) to afford a corresponding enzyme solution with the 2.4× concentration. CDK12/CyclinK was diluted in an assay buffer (80 mM MES PH 6.5, 0.01% Tween 20, 50 ug/mL BSA, 10 mM MgCl2) to afford a corresponding enzyme solution with the 2.4 concentration. A compound was dissolved in dimethyl sulfoxide (DMSO) at a concentration of 10 mM. During use, the compound was diluted with DMSO into 10 concentration gradients from 25 nM to 500 uM, and respectively diluted by 8.3 folds in the assay buffer to afford a compound solution with a 6× concentration. A polypeptide substrate and ATP were diluted in the assay buffer to afford a polypeptide substrate and ATP mixed solution with a 2.4× concentration. 2 ul of a test compound solution was mixed with 5 ul of the enzyme solution; after incubation for 10 min, 5 ul of the polypeptide substrate and ATP mixed solution was added; incubation was carried out for 180 min at 27° C.; and then, the reaction was terminated by adding 4 uL of EDTA with a concentration of 120 mM to each sample. […]. Specifically, a CDK7/cyclinH/MAT1 complex (6 nM) and a “5-FAMCD K 7 tide” peptide substrate (2 μM, synthetic fluorophore-labeled peptide with the following sequence: 5-FAM-[…], wherein “5-FAM” refers to 5-carboxyfluorescein) were used for a CDK7 inhibition assay. A CDK9/cyclinT1 complex (8 nM) and a “5-FAM-CDK9tide” peptide substrate (2 IM, synthetic fluorophore-labeled peptide with the following sequence: 5-FAM-GSRTPMY-NH2, wherein 5-FAM was as defined above and NH2 represented C-terminal amide) were used for a CDK9 inhibition assay. A CDK12 (aa686-1082)/cyclinK complex (50 nM) and “5-FAM-CDK9tide” (2 μM) as defined above were used for a CDK12 inhibition assay. A CDK2/cyclinE1 complex (0.5 nM) and “5-FAM-CDK7tide” (2 μM) as defined above were used for CDK2 inhibition assay.
as §2

ovarian cancer A2780 = experiment: Cell biological activity detection (CyQuant, 72 hours), A2780; assay type: cell-based, human; details: A2780 cells, incubation for 72 hours
Protocol: (§3) A2780 and HCC70 cells were subjected to trypsin digestion treatment, and cell suspensions were respectively transferred to 15 mL centrifuge tubes and centrifuged for 5 min at […]) rpm; supernatant was discarded, and resuspension was carried out in a fresh medium (RPMI 1640+10% FBS), after counting, cells were seeded into a 384-well plate at 2000/well (50 μL of 1640+10% FBS medium was added to the 2nd column and the 23rd column of the 384-well plate, and 50 μL of DPBS was added to the surrounding wells). Incubation was carried out overnight in an incubator (37° C., 5% CO2).
(§4) The compound was added to the well plates the next day. The compound had the highest concentration of 10 μM and was diluted at 1:4, and there were a total of 9 concentrations; and a positive compound Paclitaxel had the highest concentration of 1 μM and was diluted at 1:3, and there were a total of 9 concentrations. The DMSO content in each well was unified to 0.2%. The cell plates were centrifuged for 30 seconds at 800 rpm and placed in an incubator (37° C., 5% CO2) for incubation for 72 hours. On the fourth day, a Cyquant reagent (3×) was formulated according to kit instructions, and formulation was carried out for each 384-well plate according to the following proportions: DPBS 11.568 mL, CyQuant®? Direct nucleic acid stain 72 μL, and CyQuant® Direct background suppressor 360 μL. After uniform mixing, the reagent was placed at room temperature for further use. The cell plates were taken out and equilibrated for 30 min at room temperature, and 25 μL of the Cyquant reagent (3×) per well was dispensed into the cells of the 384-well plates by Multi-drop, and incubation was carried out for more than 60 minutes at 37° C. Acumen plate reading (Acumen setting: an excitation wavelength of 488 nm). IC50 results were analyzed by XLFIT5 from IDBS Company.

[2] = tested on: human breast cancer cells HCC70; experiment: Cell biological activity detection (CyQuant, 72 hours), HCC70; assay type: cell-based; details: incubation for 72 hours
Protocol: as §3, §4

[3] = target: CDK7/cyclinH/MAT1 complex (Homo sapiens, UniProt P50613); experiment: In-vitro enzymatic inhibitory activity testing, CDK7 inhibition assay (Caliper EZ Reader II); assay type: biochemical; details: CDK7/cyclinH/MAT1 6 nM, 180 min at 27° C.
Sequence of CDK7/cyclinH/MAT1 complex (P50613 whole entry, species assumed): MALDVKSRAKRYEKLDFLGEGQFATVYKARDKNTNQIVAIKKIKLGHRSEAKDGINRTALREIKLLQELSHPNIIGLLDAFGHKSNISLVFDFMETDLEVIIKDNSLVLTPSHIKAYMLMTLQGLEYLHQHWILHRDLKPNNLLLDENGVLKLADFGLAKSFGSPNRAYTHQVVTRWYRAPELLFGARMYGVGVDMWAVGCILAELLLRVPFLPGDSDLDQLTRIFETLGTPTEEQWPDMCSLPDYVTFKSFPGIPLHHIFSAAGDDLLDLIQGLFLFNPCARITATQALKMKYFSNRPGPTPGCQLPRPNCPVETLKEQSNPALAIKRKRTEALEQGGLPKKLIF
Sequence of CDK7/cyclinH/MAT1 complex (P51946 whole entry partner, species assumed): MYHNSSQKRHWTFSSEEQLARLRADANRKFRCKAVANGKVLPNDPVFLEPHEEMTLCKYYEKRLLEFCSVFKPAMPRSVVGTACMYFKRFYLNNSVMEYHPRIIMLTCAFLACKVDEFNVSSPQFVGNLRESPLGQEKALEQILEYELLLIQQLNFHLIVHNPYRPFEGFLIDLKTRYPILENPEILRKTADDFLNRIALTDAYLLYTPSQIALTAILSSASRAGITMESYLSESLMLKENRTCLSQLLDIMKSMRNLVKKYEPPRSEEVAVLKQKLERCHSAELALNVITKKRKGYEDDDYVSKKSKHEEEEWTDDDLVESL
Sequence of CDK7/cyclinH/MAT1 complex (P51948 whole entry partner, species assumed): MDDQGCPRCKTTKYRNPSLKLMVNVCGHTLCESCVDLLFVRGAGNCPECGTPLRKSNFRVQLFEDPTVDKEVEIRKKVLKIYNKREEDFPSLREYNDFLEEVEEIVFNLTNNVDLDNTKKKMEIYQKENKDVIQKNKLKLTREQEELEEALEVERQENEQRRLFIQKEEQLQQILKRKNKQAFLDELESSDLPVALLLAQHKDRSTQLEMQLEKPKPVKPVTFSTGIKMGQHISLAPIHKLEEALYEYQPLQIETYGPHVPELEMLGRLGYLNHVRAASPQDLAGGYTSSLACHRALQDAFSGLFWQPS
Protocol: as §1, §2

Sequence of CDK9/cyclinT1 complex (P50750 whole entry, species assumed): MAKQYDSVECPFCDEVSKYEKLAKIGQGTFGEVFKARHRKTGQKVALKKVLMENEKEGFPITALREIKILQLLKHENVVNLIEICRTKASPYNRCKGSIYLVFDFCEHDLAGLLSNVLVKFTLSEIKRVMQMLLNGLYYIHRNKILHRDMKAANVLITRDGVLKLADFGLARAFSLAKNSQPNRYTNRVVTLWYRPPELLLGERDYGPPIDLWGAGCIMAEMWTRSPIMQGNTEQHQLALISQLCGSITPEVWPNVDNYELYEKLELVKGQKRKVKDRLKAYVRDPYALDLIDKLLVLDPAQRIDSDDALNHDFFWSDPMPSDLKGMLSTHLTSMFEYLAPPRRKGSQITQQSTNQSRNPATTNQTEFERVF
Sequence of CDK9/cyclinT1 complex (O60563 whole entry partner, species assumed): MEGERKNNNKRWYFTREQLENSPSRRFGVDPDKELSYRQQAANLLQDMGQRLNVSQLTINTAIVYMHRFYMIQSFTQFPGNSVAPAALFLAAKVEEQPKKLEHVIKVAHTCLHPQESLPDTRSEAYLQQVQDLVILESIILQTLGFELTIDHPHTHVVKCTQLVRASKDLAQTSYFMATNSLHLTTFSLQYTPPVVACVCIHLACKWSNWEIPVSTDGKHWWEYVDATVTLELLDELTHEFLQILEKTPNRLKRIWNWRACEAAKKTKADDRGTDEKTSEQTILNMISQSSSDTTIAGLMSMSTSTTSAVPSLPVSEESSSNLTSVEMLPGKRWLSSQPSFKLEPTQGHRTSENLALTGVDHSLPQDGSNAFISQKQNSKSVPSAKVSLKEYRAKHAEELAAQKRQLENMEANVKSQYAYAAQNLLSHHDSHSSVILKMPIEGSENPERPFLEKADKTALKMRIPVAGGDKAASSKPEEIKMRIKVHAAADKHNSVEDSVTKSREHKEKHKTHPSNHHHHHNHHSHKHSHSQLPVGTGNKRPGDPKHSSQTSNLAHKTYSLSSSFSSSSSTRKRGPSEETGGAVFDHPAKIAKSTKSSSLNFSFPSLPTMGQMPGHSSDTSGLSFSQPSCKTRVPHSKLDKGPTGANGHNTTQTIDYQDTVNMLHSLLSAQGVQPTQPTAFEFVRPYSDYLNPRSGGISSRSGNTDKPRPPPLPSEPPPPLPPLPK

pIC50 (CDK9/cyclinT1 complex) | pIC50 (CDK2/cyclinE1 complex) | pIC50 [1] | pIC50 (ovarian cancer A2780; Homo sapiens, A2780, 72 h) | pIC50 [3] | pIC50 (ovarian cancer A2780) | Compound | pIC50 ([2]; Homo sapiens, HCC70, 72 h) | pIC50 [2]
< 4.30 | 4.30 to 5.30 | < 4.30 |  | 6.70 to 7.70 | 5.30 to 6.70 | CP(C)(=O)c1cccc2c(-c3nc(NCC(O)C(F)F)ncc3C(F)(F)F)c[nH]c12 (single isomer, unassigned) [Compound 125] |  | 6.70 to 7.70
< 4.30 | 4.30 to 5.30 | < 4.30 | 6.70 to 7.70 | > 7.70 |  | C[C@H](O)CNc1ncc(C(F)(F)F)c(-c2c[nH]c3c(P(C)(C)=O)cccc23)n1 [Compound 173, (S)-(3-(2-((2-hydroxypropyl)amino)-5-(trifluoromethyl)pyrimidin-4-yl)-1H-indole-7-yl)dimethylphosphine oxide] | 6.70 to 7.70 | 
< 4.30 | 5.30 to 6.70 | < 4.30 | 6.70 to 7.70 | 6.70 to 7.70 |  | C[C@@H](O)CNc1ncc(C(F)(F)F)c(-c2c[nH]c3c(P(C)(C)=O)cccc23)n1 [Compound 172, (R)-(3-(2-((2-hydroxypropyl)amino)-5-(trifluoromethyl)pyrimidin-4-yl)-1H-indole-7-yl)dimethylphosphine oxide] | 6.70 to 7.70 | 
< 4.30 | 4.30 to 5.30 | < 4.30 | 6.70 to 7.70 | 6.70 to 7.70 |  | CC(C)C(O)CNc1ncc(C(F)(F)F)c(-c2c[nH]c3c(P(C)(C)=O)cccc23)n1 (stereo not drawn) [Compound 162, (3-(2-((2-hydroxy-3-methylbutyl)amino)-5-(trifluoromethyl)pyrimidin-4-yl)-1H-indole-7-yl)dimethylphosphine oxide] | 5.30 to 6.70 | 
< 4.30 | 4.30 to 5.30 | < 4.30 | 6.70 to 7.70 | 6.70 to 7.70 |  | CC(C)[C@@H](CO)Nc1ncc(C(F)(F)F)c(-c2c[nH]c3c(P(C)(C)=O)cccc23)n1 [Compound 115, (S)-(3-(2-((1-hydroxy-3-methylbutan-2-yl)amino)-5-(trifluoromethyl)pyrimidin-4-yl)-1H-indole-7-yl)dimethylphosphine oxide] | 6.70 to 7.70 | 
< 4.30 | 4.30 to 5.30 | < 4.30 | 6.70 to 7.70 | > 7.70 |  | CP(C)(=O)c1cccc2c(-c3nc(NCC4(O)CC4)ncc3C(F)(F)F)c[nH]c12 [Compound 164] | 6.70 to 7.70 | 

The next lines start with the compound.

Compound | pIC50 (CDK9/cyclinT1 complex) | pIC50 (CDK2/cyclinE1 complex) | pIC50 [1] | pIC50 (ovarian cancer A2780; Homo sapiens, A2780, 72 h) | pIC50 [3] | pIC50 (ovarian cancer A2780) | pIC50 ([2]; Homo sapiens, HCC70, 72 h) | pIC50 [2]
CP(C)(=O)c1cccc2c(-c3nc(N[C@@H]4CC[C@@]5(CCNC5)C4)ncc3C(F)(F)F)c[nH]c12 [Compound 99, (3-(2-(((5R,7R)-2-azaspiro[4.4]non-7-yl)amino)-5-(trifluoromethyl)pyrimidin-4-yl)-1H-indole-7-yl)dimethylphosphine oxide] | 4.30 to 5.30 | 5.30 to 6.70 | 5.30 to 6.70 | > 7.70 | > 7.70 |  | > 7.70 | 
CP(C)(=O)c1cccc2c(-c3nc(NC4CC45CCNC5)ncc3C(F)(F)F)c[nH]c12 (single isomer, unassigned) [Compound 108] | 4.30 to 5.30 | 5.30 to 6.70 | 5.30 to 6.70 | > 7.70 | > 7.70 |  | > 7.70 | 
CP(C)(=O)c1cccc2c(-c3nc(NC4CCC5(CCNC5)C4)ncc3C(F)(F)F)c[nH]c12 (single isomer, unassigned) [Compound 100] | 4.30 to 5.30 | 5.30 to 6.70 | 5.30 to 6.70 |  | > 7.70 | > 7.70 |  | > 7.70
CP(C)(=O)c1cccc2c(-c3nc(Nc4cn[nH]c4)ncc3C(F)(F)F)c[nH]c12 [Compound 84, (3-(2-((1H-pyrazol-4-yl)amino)-5-(trifluoromethyl)pyrimidin-4-yl)-1H-indole-7-yl)dimethylphosphine oxide] | 4.30 to 5.30 | 6.70 to 7.70 | 5.30 to 6.70 | > 7.70 | > 7.70 |  | > 7.70 | 
CP(C)(=O)c1c(C#N)ccc2c(-c3nc(N[C@H]4CC[C@H](N)C4)ncc3C(F)(F)F)c[nH]c12 [Compound 78, 3-(2-(((1S,3S)-3-aminocyclopentyl)amino)-5-(trifluoromethyl)pyrimidin-4-yl)-7-(dimethylphosphoryl)-1H-indole-6-carbonitrile] | 4.30 to 5.30 | 4.30 to 5.30 | 4.30 to 5.30 | > 7.70 | > 7.70 |  | > 7.70 | 
CP(C)(=O)c1cccc2c(-c3nc(NC4CCC5(CCNC5)C4)ncc3C(F)(F)F)c[nH]c12 (single isomer, unassigned) [Compound 98] | 4.30 to 5.30 | 5.30 to 6.70 | 4.30 to 5.30 | > 7.70 | > 7.70 |  | > 7.70 | 
FC(F)(F)c1cnc(NC2COC3(CCCNC3)C2)nc1-c1c[nH]c2nc(N3CCOCC3)ccc12 (stereo not drawn) [Compound 50, N-(4-(6-morpholinyl-1H-pyrrolo[2,3-b]pyridin-3-yl)-5-(trifluoromethyl)pyrimidin-2-yl)-1-oxa-7-azaspiro[4.5]decan-3-amine] | < 4.30 | 4.30 to 5.30 | 4.30 to 5.30 | 5.30 to 6.70 | 5.30 to 6.70 |  | 5.30 to 6.70 | 
